Measurements as given in patent publication US9102674B2, “Substituted naphthyridine and quinoline compounds as MAO inhibitors” (DART NEUROSCIENCE (CAYMAN) LTD., priority 2013, dated 2015).

Biological target: T1, Human recombinant MAO-B (Homo sapiens, UniProt P27338)
T1 construct: host or cells: insect cells
T1 sequence (P27338 1-520): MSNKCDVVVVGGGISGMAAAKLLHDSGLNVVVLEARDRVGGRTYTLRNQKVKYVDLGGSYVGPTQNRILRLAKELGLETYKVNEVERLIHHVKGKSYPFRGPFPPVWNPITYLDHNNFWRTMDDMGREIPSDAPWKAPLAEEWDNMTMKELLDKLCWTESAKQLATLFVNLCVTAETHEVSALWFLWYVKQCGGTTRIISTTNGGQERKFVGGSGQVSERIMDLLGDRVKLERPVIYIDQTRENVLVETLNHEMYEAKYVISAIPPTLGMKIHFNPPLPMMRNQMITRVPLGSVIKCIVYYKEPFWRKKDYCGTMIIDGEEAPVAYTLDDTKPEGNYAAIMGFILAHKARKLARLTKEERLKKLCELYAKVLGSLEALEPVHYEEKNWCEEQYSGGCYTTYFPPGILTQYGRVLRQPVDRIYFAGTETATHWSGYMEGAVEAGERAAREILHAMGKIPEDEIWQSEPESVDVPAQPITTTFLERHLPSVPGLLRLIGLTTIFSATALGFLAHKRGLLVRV
Assay: MAO-B enzymatic assay (fluorometric, kynuramine)
Assay type: biochemical
Conditions: human recombinant MAO-B expressed in insect cells; kynuramine substrate; values given as bins; read-out: MAO-B (pEC50) (converted)
Description: The MAO enzymatic assay was performed according to the fluorometric method described by Matsumoto and colleagues (Matsumoto et al., Clin. Biochem. 1985, 18, 126-129) with the following modifications. Human recombinant MAO-A and MAO-B expressed in insect cells were used. For both assays, test compound and/or vehicle were preincubated with purified enzyme in phosphate buffer pH 7.4 for 15 minutes at 37° C. The reaction was initiated by addition of […] kynuramine. Following a 60 minute incubation period, the reaction was terminated by the addition of 6 N NaOH. The amount of 4-hydroxyquinoline that formed was determined by spectrofluorimetrically at 325 nm/465 nm.
Results were converted to percent inhibition, and the EC50 (M) for each reaction was determined using the XLfit program from IDBS (ID Business Solutions Ltd., 2 Occam Court, Surrey Research Park, Guildford, Surrey, GU2 7QB UK). The EC50 represents the concentration of a compound where 50% of its maximal effect is observed. The pEC50 is defined as the negative logarithm of the EC50; a higher pEC50 value therefore corresponds to higher potency in the assay.
Representative compounds of the invention were evaluated in the MAO-B enzymatic assay. Typically, the compounds of the invention show MAO-B inhibitory properties at a concentration of 0.1 to 10 μM, typically at 5-100%.
As depicted in the following Table, these inhibitory properties were mirrored by pEC50 values ranging from 5 (meaning 10^−5 M or 10 μM) to greater than 7 (meaning less than 10^−7 M or 0.1 μM).

| EC50 [nM] | SMILES |
| --- | --- |
| < 100 | CCOC(=O)c1cnc2cc(OCc3ccc(Cl)cc3)ccc2c1 [Example 1, Ethyl 7-[(4-chlorophenyl)methoxy]quinoline-3-carboxylate] |
| < 100 | CCOC(=O)c1cnc2cc(OCc3ccc(F)cc3)ccc2c1 [Example 2, Ethyl 7-[(4-fluorophenyl)methoxy]quinoline-3-carboxylate] |
| < 100 | CCOC(=O)c1cnc2cc(OCc3cccc(Cl)c3)ccc2c1 [Example 3, Ethyl 7-[(3-chlorophenyl)methoxy]quinoline-3-carboxylate] |
| < 100 | CCOC(=O)c1cnc2cc(OCc3cccc(F)c3)ccc2c1 [Example 4, Ethyl 7-[(3-fluorophenyl)methoxy]quinoline-3-carboxylate] |
| < 100 | CCOC(=O)c1cnc2cc(OCc3cccc(C(F)(F)F)c3)ccc2c1 [Example 5, Ethyl 7-((3-(trifluoromethyl)benzyl)oxy)quinoline-3-carboxylate] |
| 100 to 1000 | CCOC(=O)c1cnc2cc(OCc3ccc(C(F)(F)F)cc3)ccc2c1 [Example 6, Ethyl 7-((4-(trifluoromethyl)benzyl)oxy)quinoline-3-carboxylate] |
| < 100 | CCOC(=O)c1cnc2cc(OCc3cccc(C)c3)ccc2c1 [Example 7, Ethyl 7-((3-methylbenzyl)oxy)quinoline-3-carboxylate] |
| 100 to 1000 | CCOC(=O)c1cnc2cc(OCc3ccc(C)cc3)ccc2c1 [Example 8, Ethyl 7-((4-methylbenzyl)oxy)quinoline-3-carboxylate] |
| < 100 | CCOC(=O)c1cnc2cc(OCc3cccc(OC)c3)ccc2c1 [Example 9, Ethyl 7-((3-methoxybenzyl)oxy)quinoline-3-carboxylate] |
| 100 to 1000 | CCOC(=O)c1cnc2cc(OCc3ccc(OC)cc3)ccc2c1 [Example 10, Ethyl 7-((4-methoxybenzyl)oxy)quinoline-3-carboxylate] |
| 100 to 1000 | CCOC(=O)c1cnc2cc(OCc3ccc([N+](=O)[O-])cc3)ccc2c1 [Example 11, Ethyl 7-((4-nitrobenzyl)oxy)quinoline-3-carboxylate] |
| < 100 | CCOC(=O)c1cnc2cc(OCc3ccc(F)c(C(F)(F)F)c3)ccc2c1 [Example 12, Ethyl 7-((4-fluoro-3-(trifluoromethyl)benzyl)oxy)quinoline-3-carboxylate] |
| < 100 | CCOC(=O)c1cnc2cc(OCc3cc(F)cc(C(F)(F)F)c3)ccc2c1 [Example 13, Ethyl 7-((3-fluoro-5-(trifluoromethyl)benzyl)oxy)quinoline-3-carboxylate] |
| < 100 | CCOC(=O)c1cnc2cc(OCc3ccc(F)c(F)c3)ccc2c1 [Example 14, Ethyl 7-((3,4-difluorobenzyl)oxy)quinoline-3-carboxylate] |
| < 100 | CCOC(=O)c1cnc2cc(OCc3cc(F)cc(F)c3)ccc2c1 [Example 15, Ethyl 7-((3,5-difluorobenzyl)oxy)quinoline-3-carboxylate] |
| < 100 | CCOC(=O)c1cnc2cc(OCc3cc(F)c(F)c(F)c3)ccc2c1 [Example 16, Ethyl 7-((3,4,5-trifluorobenzyl)oxy)quinoline-3-carboxylate] |
| < 100 | CCOC(=O)c1cnc2cc(OCc3ccc(F)c(Cl)c3)ccc2c1 [Example 17, Ethyl 7-((3-chloro-4-fluorobenzyl)oxy)quinoline-3-carboxylate] |
| < 100 | CCOC(=O)c1cnc2cc(OCc3cccc([N+](=O)[O-])c3)ccc2c1 [Example 18, Ethyl 7-((3-nitrobenzyl)oxy)quinoline-3-carboxylate] |
| < 100 | CCOC(=O)c1cnc2cc(OCc3cc(F)cc(Cl)c3)ccc2c1 [Example 19, Ethyl 7-((3-chloro-5-fluorobenzyl)oxy)quinoline-3-carboxylate] |
| < 100 | CCOC(=O)c1cc2ccc(OCc3cccc(Cl)c3)cc2nc1C [Example 20, Ethyl 7-((3-chlorobenzyl)oxy)-2-methylquinoline-3-carboxylate] |
| < 100 | CCOC(=O)c1cc2ccc(OCc3cccc(F)c3)cc2nc1C [Example 21, Ethyl 7-((3-fluorobenzyl)oxy)-2-methylquinoline-3-carboxylate] |
